In US20080261870A1, “Use of the Pro-Peptide Domain of Lysyl Oxidase as a Therapeutic Agent” (priority 2004, published 2008):

Experiments:
lysyl oxidase = target: T1, lysyl oxidase (Mus musculus, UniProt P28301); test: Lysyl oxidase enzyme activity in PR4 cell culture media (tritiated tropoelastin substrate); type: biochemical
T1 construct: endogenous in cells; conditioned serum-free medium
T1 sequence (P28301 163-411): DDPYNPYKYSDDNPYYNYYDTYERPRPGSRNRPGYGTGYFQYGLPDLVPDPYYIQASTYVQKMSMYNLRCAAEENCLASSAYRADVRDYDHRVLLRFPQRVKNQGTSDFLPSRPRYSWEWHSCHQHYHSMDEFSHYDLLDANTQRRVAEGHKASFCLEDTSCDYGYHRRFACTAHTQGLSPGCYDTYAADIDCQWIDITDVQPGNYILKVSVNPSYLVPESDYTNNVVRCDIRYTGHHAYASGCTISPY
Procedure: (§1) If lysyl oxidase enzyme activity were required for the normal phenotype of PR4 cells, then BAPN would cause re-transformation. Thus, growth curves were generated for PR4 cells in the presence of 0 or 400 μM BAPN.
Lysyl oxidase enzyme activity. PR4 cells were plated in 100 mm cell culture plates and then grown and re-fed every two days as described above in the constant presence of 0, 200 and 400 μM BAPN for seven days until visually confluent. Cells were then re-fed with serum-free medium supplemented with 0.1% bovine serum albumin still in the constant presence or absence of BAPN. After 24 hours conditioned 0.3 ml aliquots of media samples were assayed in quadruplicate using a tritiated recombinant human tropoelastin as substrate as previously described (Bedell-Hogan et al., 1993). Incubations were performed at […] for 90 minutes (Hong et al., 1999) and data were expressed as total cpm released +/−SE per culture.

PR4 cells = test: Growth curves and morphology of PR4 cells; type: cell-based; conditions: 400 μM BAPN
Procedure: as §1
Growth curves. To study cell growth rates, cells were plated in 6-well plates at a density of 35,000 cells/well and were grown in complete medium containing 10% FBS, as described above. Additions of suramin or β-aminopropionitrile (BAPN), when appropriate, were initiated 24 hours after plating. Media were changed every three days in the continuous presence of suramin or BAPN, as indicated for each experimental design in the Results section. Cell density was determined in triplicate every day by crystal violet staining, as described (Kueng et al., 1989; Gillies et al., 1986). Cells were fixed with 10% formalin in PBS, washed with PBS, and then stained for 30 minutes with 0.1% crystal violet at room temperature with shaking. Unbound dye was then removed by washing with water until washes were colorless. Bound dye was then eluted with 10% acetic acid, and quantitated by measuring the absorbance at 590 nm. For quantitative analyses of growth rates, the logarithmic value of absorbance vs time was plotted±standard deviation and the rates were calculated by linear regression analyses. In addition, data were plotted as total absorbance +/−SE vs time. […]

[1] = tested on: ras-transformed fibroblasts; test: Growth in soft agar of ras-transformed fibroblasts with ectopic lysyl oxidase expression, with BAPN; type: cell-based
Source text: It has now been determined that the ability of lysyl oxidase to revert the phenotype of ras-transformed fibroblasts depends substantially on the pro-peptide domain and not on lysyl oxidase enzyme activity. Since diminished lysyl oxidase expression in some way contributes to the transformed phenotype, it had generally been assumed that lysyl oxidase enzyme activity is related to the tumor suppressor activity of lysyl oxidase, and, therefore, that diminished lysyl oxidase activity promotes the transformed phenotype. […] The lack of effect of BAPN on lysyl oxidase-dependent phenotype control is interesting. […] Given that BAPN is an irreversible inhibitor of lysyl oxidase (Tang et al., 1983), it follows that both extracellular and intracellular lysyl oxidase activity are susceptible to inhibition by BAPN.

RS485 cells [2] = test: Growth curves of RS485 cells (crystal violet staining); type: cell-based; conditions: for decrease of growth rate: linear regression of log of absorbance vs time
Source text: Effect of suramin on RS485 cell phenotype. Suramin is a polysulfonated naphthylurea, initially used in the treatment of trypanosomiasis and onchocerciasis (Sullivan et al., 1997). Its anti-cancer activity was later identified, and suramin has been introduced into clinical trials for various forms of cancer (La Rocca et al., 1990(a); La Rocca et al., 1990(b); Song et al., 2001; Small et al., 2000; Garcia-Schurmann et al., 1999). Suramin interrupts autocrine growth factor pathways by inhibiting the binding of growth factors to their receptors (Sullivan et al., 1997; Zanghi et al., 2000; Fukumoto et al., 2000; Mietz et al., 1998; Coffey et al., 1987). Treatment of c-Ha-ras-transformed NIH 3T3 cells (RS485 cell line) with suramin leads to the induction of lysyl oxidase (Palamakumbura et al., 2003). Here we investigated the effects of suramin on the rate of growth and morphology of RS485 cells, as an initial measure of cell phenotype. Cells were plated in 6-well plates and cultured for 24 hours and then grown in the continuous presence of 0, 100, 125, or 150 μM suramin. As control, the growth of phenotypically normal NIH 3T3 cells in the absence of suramin was analyzed at the same time. Cell growth was determined by daily crystal violet staining of replicate wells. RS485 cells grew more rapidly than NIH 3T3 cells, as expected (Chang et al., 1982). […] The growth rate of RS485 cells treated with 150 μM suramin was similar to that of NIH 3T3 cells.
BAPN-mediated inhibition of lysyl oxidase enzyme activity fails to prevent phenotypic reversion induced by suramin. It has generally been assumed, although never directly tested, that lysyl oxidase dependent phenotypic reversion and tumor suppressor activity depends on its enzyme activity. To directly test the role of lysyl oxidase enzyme activity, we measured the effects of the lysyl oxidase inhibitor, BAPN (Tang et al., 1983), on the phenotypic changes in RS485 cells following treatment with 150 μM suramin. We have previously shown that suramin induces lysyl oxidase activity by about 2.5-fold (Palamakumbura et al., 2003). RS485 cell growth was assessed in the absence or presence of either 150 μM suramin or 400 μM BAPN, or a combination of both 150 μM suramin and 400 μM BAPN.
Growth curves. To study cell growth rates, cells were plated in 6-well plates at a density of 35,000 cells/well and were grown in complete medium containing 10% FBS, as described above. Additions of suramin or β-aminopropionitrile (BAPN), when appropriate, were initiated 24 hours after plating. Media were changed every three days in the continuous presence of suramin or BAPN, as indicated for each experimental design in the Results section. Cell density was determined in triplicate every day by crystal violet staining, as described (Kueng et al., 1989; Gillies et al., 1986). Cells were fixed with 10% formalin in PBS, washed with PBS, and then stained for 30 minutes with 0.1% crystal violet at room temperature with shaking. Unbound dye was then removed by washing with water until washes were colorless. Bound dye was then eluted with 10% acetic acid, and quantitated by measuring the absorbance at 590 nm. For quantitative analyses of growth rates, the logarithmic value of absorbance vs time was plotted±standard deviation and the rates were calculated by linear regression analyses. In addition, data were plotted as total absorbance +/−SE vs time. Experiments were performed three times each with consistent findings.

lysyl oxidase mRNA = test: Northern blot analysis of lysyl oxidase mRNA in transfected RS485 clones; type: cell-based, mouse; conditions: 150 μM suramin, 24 hours, normalized to 18S rRNA
Procedure: To confirm that lysyl oxidase expression is actually diminished by anti-sense lysyl oxidase transfection, the ability of 150 μM suramin to induce low steady state mRNA levels of lysyl oxidase in clones was assessed after 24 hours of treatment by Northern blot analysis with normalization to 18S rRNA signals. Suramin treatment led to an average 8-fold increase in lysyl oxidase mRNA levels in the six empty vector-transfected clones assayed, consistent with previous studies on non-transfected RS485 cells (Palamakumbura et al., 2003). In contrast, an average 1.8-fold increase in lysyl oxidase mRNA levels occurred in the nine anti-sense lysyl oxidase transfected clones, as shown by Northern blot analysis. Thus, the induction of steady state lysyl oxidase mRNA levels by suramin is inhibited by the anti-sense lysyl oxidase transfection, as expected.
RNA isolation and Northern blot analysis. Total RNA was isolated using the RNeasy —RNA isolation kit (Qiagen, Valencia, Calif.). Ten μg samples of denatured RNA were electrophoresed on a 1% agarose gel containing […]. Gels were transferred in 10×SSC by capillary blotting overnight to Gene Screen nylon membranes (Perkin Elmer Life Science, Boston, Mass.). […] Autoradiograms were assessed and normalized by densitometric scanning on a Versa Doc Model 3000 Gel Documentation System and Quantity One Software (BioRad, Hercules, Calif.). […]

RS485 cells [3] = test: Cell cycle analysis (FACS, propidium iodide) of RS485 cells treated with suramin; type: cell-based; conditions: 2 days
Procedure: We next determined the effects of suramin on cell cycle progression of RS485 cell cultures. […] The proportions of cells in G1 and S phases in cultures treated with 150 μM suramin are nearly identical to untreated phenotypically normal NIH 3T3 cells (Table I). Thus, treatment with 150 μM suramin changed the morphology, cell cycle, and growth rate of RS485 cells resulting in a more normal phenotype.
(§2) Cell cycle analysis. RS485, NIH 3T3 and PR4 cells were plated on 100 mm plates and were grown until confluent with 0 or 150 μM suramin. Cells (1.5−2×10^6) were then trypsinized, washed with PBS and fixed by washing with ice-cold 70% ethanol. Cells were stained with propidium iodide (50 μg/ml) in PBS containing 2% FBS and was analyzed by flow cytometry using a FACScan flow cytometry with CELLQUEST acquisition and analysis software (Becton Dickinson Co, Bedford, Mass.).
RS485 cells were grown in the presence of 0, 100, or 150 μM suramin for 2 days. Alternatively, NIH 3T3 cells were grown in the absence of suramin, as control. Cells (1.5−2×10^6) were fixed with 70% ethanol and stained with propidium iodide and analyzed by flow cytometry. Data shown are the averages ±SD of experiments performed three times.

lysyl oxidase activity = conditions: previously shown (Palamakumbura et al., 2003); cited from earlier work
[4] = tested on: transfected RS485 cell clones; test: Cell cycle analysis of anti-sense lysyl oxidase and empty vector transfected RS485 cell clones; type: cell-based; conditions: 150 μM suramin, 24 hours
Procedure: Inhibition of lysyl oxidase expression reduces phenotypic reversion induced by suramin. […] To determine that the suramin-induced phenotypic changes depend upon lysyl oxidase expression, we generated stable anti-sense lysyl oxidase transfected RS485 cell clones. Nine anti-sense lysyl oxidase transfected clones and six empty vector transfected clones were generated and grown in the presence and absence of 150 μM suramin, and after 24 hours, cells were fixed and subjected to cell cycle analysis. Non-transfected RS485 cells were analyzed as an additional control. Differences in the percentage of cells in G1 and S phase occurred as a function of suramin treatment.
as §2
Stable transfection of RS485 cells with an anti-sense lysyl oxidase expression vector. Cells were grown in 100 mm cell culture dishes. At approximately 70% confluence, they were transfected with the anti-sense murine lysyl oxidase expression vector pCLO3 (Giampuzzi et al., 2001) (20 μg DNA/plate) using the calcium phosphate precipitation method (Graham et al., 1973). As a control, RS485 cells were transfected with empty vector (pcDNA3). The transfected cells were selected using G418 (geneticin) at a final concentration of 400 μg/ml in the medium. Colonies were isolated from anti-sense lysyl oxidase and empty vector transfected RS485 cells using cloning cylinders (Southern et al., 1982) and cultured in 400 μg/ml G418. Cells were then plated onto 100 mm plates (250,000 cells/plate) without G418 and treated with 0 or 150 μM suramin. After 24 hours, cells were prepared for cell cycle and Northern analysis as described above.

[5] = anti-sense lysyl oxidase transfected clones
[6] = empty vector transfected clones

Structure (SMILES): N#CCCN [BAPN, β-aminopropionitrile]
- lysyl oxidase enzyme activity in medium (lysyl oxidase; PR4 cultures in continuous presence of 200 μM BAPN): no lysyl oxidase enzyme activity was detected
- lysyl oxidase enzyme activity in medium (lysyl oxidase; PR4 cultures in continuous presence of 400 μM BAPN): no lysyl oxidase enzyme activity was detected
- effect on growth rate of PR4 cells (PR4 cells): did not affect the growth rate
- effect on morphology of PR4 cells (PR4 cells): did not change the morphology
- effect on ability of ectopic lysyl oxidase expression to prevent growth in soft agar [1]: failed to block
- effect on suramin-mediated inhibition of RS485 cell growth (RS485 cells [2]; 150 μM suramin and 400 μM BAPN combined): did not reverse or affect in any detectable way
- effect on growth rate of RS485 cells (RS485 cells [2]; 400 μM BAPN): had no effect on the growth rate

Structure (SMILES): Cc1ccc(C(=O)Nc2ccc(S(=O)(=O)O)c3cc(S(=O)(=O)O)cc(S(=O)(=O)O)c23)cc1NC(=O)c1cccc(NC(=O)Nc2cccc(C(=O)Nc3cc(C(=O)Nc4ccc(S(=O)(=O)O)c5cc(S(=O)(=O)O)cc(S(=O)(=O)O)c45)ccc3C)c2)c1 [suramin]
- average increase in lysyl oxidase mRNA levels (lysyl oxidase mRNA; nine anti-sense lysyl oxidase transfected clones): 1.8 fold
- average increase in lysyl oxidase mRNA levels (lysyl oxidase mRNA; six empty vector-transfected clones): 8 fold
- G1 % (RS485 cells [3]; 100 μM suramin): 59.4 ± 1.3%
- G2, M % (RS485 cells [3]; 100 μM suramin): 19.1 ± 7.9%
- S % (RS485 cells [3]; 100 μM suramin): 21.5 ± 2.4%
- G1 % (RS485 cells [3]; 150 μM suramin): 67.4 ± 0.2%
- G2, M % (RS485 cells [3]; 150 μM suramin): 13.6 ± 1.9%
- S % (RS485 cells [3]; 150 μM suramin): 19.0 ± 1.7%
- induction of lysyl oxidase activity (lysyl oxidase activity): about 2.5 fold
- decrease in S phase [4, 5]: 6.9%
- increase in percentage of cells in G1 phase [4, 5]: 10.6%
- decrease of average number of cells in S phase [4, 6]: 13.5%
- increase of average number of cells in G1 [4, 6]: 20.8%
- decrease of growth rate (RS485 cells [2]; 100 μM suramin): 38%
- decrease of growth rate (RS485 cells [2]; 125 μM suramin): 49%
- morphology of RS485 cells (RS485 cells [2]; 150 μM suramin): flatter and contact inhibited
- effect on growth rate of RS485 cells (RS485 cells [2]; 150 μM suramin (BAPN experiment)): decreased the growth rate
- decrease of growth rate (RS485 cells [2]; 150 μM suramin): 56%
